{"source": "patent US6365634B1", "about": "“Naturally occurring compounds and their derivatives as cyclooxygenase 2 and/or 5-lipoxygenase inhibitors” (C-P Technology Limited Partnership, priority 1997, dated 2002)", "key": {"[1]": {"tested_on": "human keratinocyte PGE2 production", "assay": "Cell-based COX II assay: PGE2 production by cultured human foreskin keratinocytes (enzyme immunoassay)", "conditions": "5, 1.0, 0.2 and 0.04 uM, 24 hours, high calcium medium", "description": "The ability of dehydroabietic acid methyl ester to inhibit the enzymatic activities of COX II and 5-LO was tested using primary cultures of human foreskin keratinocytes. Briefly, human keratinocytes were plated in 48-well plates (Nunc) at an initial density of 2.5×10^4 cells per well. The cultures were maintained in medium 154XP (Cascade Biologics) to which human keratinocyte growth supplement (Cascade Biologics) was added. Cultures were plated initially in medium 154XP containing 0.07 mM CaCl2. Upon reaching […] confluency, the media was exchanged with high calcium medium 154XP containing 1.2 mM CaCl2. Previous studies have shown that an increase in extracellular Ca^2+concentration induces the differentiation of cultured keratinocytes with a concomitant increase in the expression of COX II protein and COX II mRNA with no apparent effect on COX I expression (Leong, J., Hughes-Fulford, M., Rakhlin, A., Maclouf, J., and Goldyne, M., (1996), Exp. Cell Res., V224, p79). Twenty-four hours after switching to the high calcium media, duplicate wells were treated with dehydroabietic acid methyl ester serially diluted in ethanol to produce final concentrations of 5, 1.0, 0.2, and 0.04 uM. Companion cultures were treated with an identical dilution series of the Merck COX II-specific inhibitor DFU. Twenty-four hours later, samples were removed from each treated well (as well as vehicle-treated control wells) and the amount of PGE2 (a product of the COX II pathway) was quantified using a PGE2-specific enzyme immunoassay (Cayman Chemical). ), As was done with the previously described biochemical assays (COX I, COX II, 5-LO, and 15-LO), the percent inhibition was calculated based on a comparison between vehicle treated control cultures and cultures treated with dehydroabietic acid methyl ester or DFU (see Fractionation and Bioassay Analysis of Fractions Derived from Extract-8 above).\nThe ability of 4-cumylphenol to inhibit the enzymatic activity of COX II was tested using primary cultures of human foreskin keratinocytes. These cell studies were performed in an identical manner to the studies described in Example 6. […] Twenty-four hours later, samples were removed from each treated well (as well as vehicle-treated control wells) and the amount of PGE2 (a product of the COX II pathway) was quantified using a PGE2-specific enzyme immunoassay (Cayman Chemical). ), as was done with the previously described COX I, COX II, and 15-LO biochemical assays (see Example 2B). The percent inhibition was calculated based on a comparison between vehicle treated control cultures and cultures treated with 4-cumylphenol or DFU. […]\nTo evaluate the biological activities of 3-methoxy aniline, sufficient quantities of the compound were synthesized as detailed in Example 1C (above). […]"}, "[2]": {"tested_on": "human keratinocytes", "assay": "Lactate dehydrogenase (LDH) release toxicity assay", "type": "cell-based", "conditions": "highest value of any culture treated with 5, 1.0, 0.2 or 0.04 uM", "description": "To address the possibility that the inhibition of both PGE2 and LTB4 production by human keratinocytes treated with dehydroabietic acid methyl ester was […], a cell lactate dehydrogenase toxicity assay (Fisher Scientific) was performed. Briefly, lactate dehydrogenase (LDH) is found intracellularly and is released only in response to toxic stimuli and/or cell death. The amount of LDH released into the media of cultured cells is indicative of the degree of toxicity occurring in that culture. To do the assay, 48-well plates of cultured human keratinocytes (as described above for the PGE2 assay) were prepared and treated with the same concentrations of dehydroabietic acid methyl ester as described above for the PGE2 and LTB4 assays. One hour prior to harvesting culture media samples from wells treated with dehydroabietic acid methyl ester, duplicate wells were treated with a cell lysis buffer (Fisher Scientific) that caused 100% cell death to occur in the treated wells. After culture media samples were collected from all wells, the amount of LDH present in each was determined using a colorometric assay (Fisher Scientific). […] The amount of LDH released into the media of cultures treated with dehydroabietic acid methyl ester as well as vehicle-control media was determined using the colorometric assay and expressed as a percentage of that released by the 100% cell death wells.\nTo address the possibility that the inhibition of PGE2 production by human keratinocytes treated with 4-cumylphenol was due to toxicity, a cell lactate dehydrogenase toxicity assay (Fisher Scientific) was performed. […] After culture media samples were collected from all wells, the amount of LDH present in each was determined using a colorometric assay (Fisher Scientific). […] The amount of LDH released into the media of cultures treated with dehydroabietic acid methyl ester as well as vehicle-control media was determined using the colorometric assay and expressed as a percentage of that released by the 100% cell death wells. […]"}, "[3]": {"tested_on": "human keratinocytes", "assay": "Microscopic examination of treated keratinocyte cultures", "type": "cell-based"}}, "data": [{"smiles": "CC(C)(c1ccccc1)c1ccc(O)cc1", "note": "[4-Cumylphenol, 4-cumylphenol]", "values": [{"measurement": "inhibition of PGE2 production by cultured human keratinocytes", "setting": "[1]", "result": "inhibited the production of PGE2"}, {"measurement": "percent toxicity (LDH released) versus the 100% cell death control", "setting": "[2]", "result": "≤ 12.7", "unit": "%"}, {"measurement": "toxicity when treated cultures were examined microscopically", "setting": "[3]", "result": "lack of toxicity"}]}, {"smiles": "COC(=O)[C@]1(C)CCC[C@]2(C)c3ccc(C(C)C)cc3CC[C@@H]12", "note": "[Dehydroabietic acid methyl ester, dehydroabietic acid methyl ester]", "values": [{"measurement": "inhibition of PGE2 production by cultured human keratinocytes", "setting": "[1]", "result": "inhibited the production of PGE2"}, {"measurement": "percent toxicity (LDH released) versus the 100% cell death control", "setting": "[2]", "result": "≤ 12", "unit": "%"}, {"measurement": "toxicity when treated cultures were examined microscopically", "setting": "[3]", "result": "lack of toxicity"}]}]}
